For 62 molecules, melting point results are on record in a melting point compilation (Tetko et al.; mined from patent text by program, amines drawn as free bases though some values may be those of a salt).

By melting point is commonly meant the temperature of the solid-liquid transition. Molecule `NC(=O)c1cc(-c2ccc(Cl)cc2)n(-c2ccc(S(N)(=O)=O)cc2)n1` had a melting point of 108 to 110 °C. On to `CC(=O)c1ccc(OCCCC(=O)O)cc1F`, for which the melting point was 110 to 111 °C. With `COC=C(C(=O)OC)C1(c2ccc(OC)cc2)CC=C2C=CC=C2O1` (configuration not stated) the figure was 124 °C; with `COC(=O)COc1cccc2c(CCBr)c(C)oc12`, 146 to 148 °C; with `CC1C=NNc2c(-c3ccc(F)cc3)c(-c3ccncc3)nn21` (configuration not stated), 204 °C.

For `C/C(N)=C/C(=O)OCCOC/C(C)=C/c1ccc(Cc2cccnc2)cc1`, the melting point was 67 to 70 °C. The molecule `N#CC(C#N)=CNc1ccc(C2=NNC(=O)CC2)cc1` yielded a melting point of 290 to 295 °C.

For the molecule `O=C1NCC(Cn2cncn2)(c2ccc(Cl)cc2Cl)O1` (configuration not stated), the melting point stood at 223 °C. To `CC(=O)OCC(=O)NCCCn1c(-c2ccc(Br)cc2)csc1=Nc1ccccc1` belongs 156 to 159 °C. To `Nc1ccc(OCc2ccccc2)cc1C=C(Br)Br` belongs 67 to 68 °C; to `O=C(O)/C=C/c1c[nH]c2ccccc2c1=O`, 242 to 244 °C; to `CSc1cnn(-c2c(Cl)cc(C(F)(F)F)cc2Cl)c1N`, 106 to 108 °C.

`Cc1c(F)ccc([N+](=O)[O-])c1Cl` came in with a melting point of 37 to 39 °C. To `O=CNc1cc([N+](=O)[O-])cc([N+](=O)[O-])c1` belongs 121 to 123 °C. Consider `COc1ccc(-c2nc(-c3ccc(F)cc3)sc2-c2ccc(OC)cc2)cc1`, for which the melting point lay within 140 to 142 °C.

Consider `CCCCCCN(Cc1ccccc1)Cc1nc(-c2ccc(-c3ccccc3)cc2)c[nH]1`, for which the melting point was 120 to 122 °C. `Oc1ccc(-n2cnc3cc(O)cc(O)c3c2=S)cc1` gave a melting point of 299 to 302 °C. To `CSc1ncc2cc(Br)c(=O)[nH]c2n1` belongs 266 to 270 °C. With `CCSc1ccc(C(=O)NCc2ccc3c(c2)C(=O)N(C2(C)CCC(=O)NC2=O)C3=O)nn1` (configuration not stated) the figure was 160 to 162 °C.

As to `[N-]=[N+]=NC1(O)CC(n2cc(Br)c(=O)[nH]c2=O)OC1CO` (configuration not stated), the melting point lay in the range of 148 to 149 °C. With `CC(C)(C)c1ccc(-c2ccc(N3CCCN(c4ccc(-c5ccc(C(C)(C)C)cc5)cn4)CC3)nc2)cc1` the figure was 268 to 270 °C; with `CO[C@]12C[C@@H](CN3CCC(O)(c4ccc(Cl)c(C(F)(F)F)c4)CC3)CN(C)[C@@H]1Cc1c[nH]c3cccc2c13`, 143 to 146 °C.

In turn, `CN1C(=O)CC(c2ccccc2)C1C(O)C=Cc1ccc(F)cc1` (configuration not stated) displayed a melting point of 189 to 191 °C. Consider `CC(C)(C)OC(=O)N[C@H](Cc1cccc(OC(F)(F)C(F)F)c1)[C@@H](O)c1csc(-c2ccccc2)n1` (racemic), for which the melting point was 127 to 128 °C. To `COc1cccc(-c2c3c(cc4ccc(O)cc24)-c2ccc(O)cc2CO3)c1` belongs 220 to 223 °C; to `CCOC(=O)CN(Cc1cc(F)ccc1F)S(=O)(=O)c1ccc(N2CCC(NC[C@H](O)c3ccc(O)c(NS(C)(=O)=O)c3)CC2)cc1`, 85 to 90 °C; to `CCOP(=O)(/C=C/c1cn(-c2ccccc2)nc1OCc1ccc(OCc2nc(-c3cccc(C(=O)O)c3)oc2C)c(OC)c1)OCC`, 148 to 149 °C. With `O=C1NCCc2c(-c3cccc(C(F)(F)F)c3)[nH]c3cccc1c23` the figure was 212 to 214 °C; with `CCn1c(C)cc(=O)nc1S`, 190 °C. With `O=C1C(Cl)=C(N2CCN(c3nc4ccccc4o3)CC2)C(=O)c2nsnc21` the figure was 233 to 235 °C; with `Cn1cc(C(=O)NCc2ccc(Cl)cc2)c(=O)c2cc(CCCO)cc(OCCO)c21`, 175 to 179 °C; with `CC1CC(O)=CC2=CCC3C4CCC(O)C4(C)CCC3C21C` (configuration not stated), 111 to 112 °C. Consider `Nc1nc2ccccc2n1-c1cccc(-c2nccs2)c1`, for which the melting point lay in the range of 224 to 226 °C. To `CCOC(=O)c1cn(C(C)CCl)c2cc(Cl)c(F)cc2c1=O` (configuration not stated) belongs 151 to 153 °C; to `Nc1cccc(Oc2ccc(C(=O)c3ccc(C(=O)c4ccc(Oc5cccc(N)c5)cc4)cc3)cc2)c1`, 161 to 163 °C; to `COc1cccc(C23CCN(C)CC2Cc2c([nH]c(C(=O)N4CCCC4)c2C)C3)c1` (configuration not stated), 171 to 173 °C.

On to `Nc1sc(CC(C(=O)O)C(=O)O)cc1C(=O)c1ccccc1Cl`, for which the melting point fell in the range of 150 to 160 °C. `Cc1ccc(-c2ccc(-c3nnn[nH]3)cc2)cc1C` had a melting point of 192 to 194 °C.

Turning to `CCCCCN(C[C@H]1CC[C@H](CN(CCCCC)C(=O)Nc2ccc(N(C)C)cc2)CC1)C(=O)Nc1ccc(N(C)C)cc1`, the melting point fell in the range of 205 to 208 °C.

`CNc1nc(Nc2ccc(S(C)=O)cc2)ncc1[N+](=O)[O-]` (configuration not stated) had a melting point of 288 °C. In the case of `Cc1c(SCCCCSCc2ccncc2)ccnc1CNc1cnc2ccccc2c1`, the melting point was 110 to 113 °C.

In turn, `CC(C)c1cc(C(C)C)c(CC(=O)NS(=O)(=O)Oc2c(C(C)C)cc(S(N)(=O)=O)cc2C(C)C)c(C(C)C)c1` returned a melting point of 164 to 166 °C. `CC(C)(O)C1CC(c2ccc(-c3ccc(N4C[C@H](Cn5ccnn5)OC4=O)cc3F)cn2)=NO1` (some centres not stated): the melting point was 197 °C. To `CN(c1ccccc1)c1nc(N2CCOCC2)nc(-n2ccnc2)n1` belongs 119 to 120 °C; to `c1ccc(C(OC2CCNCC2)c2ccccc2)cc1`, 56 °C; to `CCCc1nnc2c3cccc(Br)c3ccn12`, 197 to 199 °C. With `O=C(O)c1cc(Br)ccc1COc1ccc(Br)cc1` the figure was 214 to 215 °C.

Molecule `O=C(O)C#Cc1ccc(-c2ccc(Cl)cc2)cn1` came in with a melting point of 210 °C.

Molecule `COc1ncc(Cl)cc1C(O)C(N)=O` (configuration not stated) gave a melting point of 110 to 113 °C.

Regarding `CCN1CCCCC1CCc1ccccc1NC(=O)c1ccc(OC)cc1` (configuration not stated), the melting point was 136 to 138 °C. With `O=C(O)C1(CS(=O)(=O)c2ccc(Oc3ccccc3)cc2)CCOCC1` the figure was 162 to 165 °C. With `O=C(CBr)Nc1ccc(O)cc1C(=O)O` the figure was 213 to 215 °C; with `COC(=O)c1sccc1S(=O)(=O)NC(=O)Nc1nc(C)cc(OC(F)F)n1`, 178 to 179 °C. Turning to `COc1ccc2c(c1)CCCC2N(CC(=O)O)C(=O)C(C)CSC(C)=O` (configuration not stated), the melting point was 158 to 161 °C. To `CC(C)(C#N)c1cc(C#N)cc(Cn2cncn2)c1` belongs 90 to 92 °C. With `Cc1ccc(-c2ccc(Cl)c(OC3SCC(O)C(O)C3O)c2)cn1` (configuration not stated) the figure was 201 °C.

Turning to `OCc1cnoc1-c1ccc(C(F)(F)F)cc1`, the melting point fell in the range of 106 to 107 °C. To `COc1cc(OC)c(-c2cccs2)cc1/C=C/C(=O)c1ccc(S(=O)(=O)Nc2cc[nH]n2)cc1` belongs 142 to 145 °C; to `COc1cc2c(cc1OC)CN(CCCOc1ccc(NC(=O)c3cccc4c(=O)c5cccc(OC)c5[nH]c34)cc1)CC2`, 190 °C; to `Cc1ccc(-n2nc(C(F)F)cc2-c2ccc(S(C)(=O)=O)c(F)c2)cc1Cl`, 146 to 147 °C. With `C/C(Cl)=C/CCC(=O)C=P(c1ccccc1)(c1ccccc1)c1ccccc1` the figure was 109 to 113 °C; with `COC(=O)C1=C(N)NC(C)=C([N+](=O)[O-])C1c1ccccc1S(=O)(=O)CCCCN1CCN(c2ccccc2OC)CC1` (configuration not stated), 145 to 147 °C.
